Data: ChEMBL document CHEMBL5107958, “Phosphoramidate Prodrugs Continue to Deliver, The Journey of Remdesivir (GS-5734) from RSV to SARS-CoV-2” (ACS Med Chem Lett, 2022)

Key:
[1] = system: SARS-CoV-2; assay: Potency index, ratio of EC50 of GS-441524 to EC50 of test compound for antiviral activity against SARS-CoV-2 infected in HAEC cells assessed as reduction in viral replication incubated for 1.5 hrs followed by virus removal upto 24 hrs and subsequent replacement of medium containing compound by RT-qPCR analysis; format: functional, Severe acute respiratory syndrome coronavirus 2; conditions: time <= 25.5 hrs
[2] = system: SARS-CoV-2; assay: Antiviral activity against SARS-CoV-2 infected in HAEC cells assessed as reduction in viral replication incubated for 1.5 hrs followed by virus removal upto 24 hrs and subsequent replacement of medium containing compound by RT-qPCR analysis; format: functional, organism-based; conditions: Severe acute respiratory syndrome coronavirus 2, HAEC

SMILES	Ratio [1]	EC50 [2] [nM]
CCC(CC)OC(=O)[C@H](C)N[P@](=O)(OC[C@H]1O[C@@](C#N)(c2ccc3c(N)ncnn23)[C@H](O)[C@@H]1O)Oc1ccccc1	11	48
N#C[C@@]1(c2ccc3c(N)ncnn23)O[C@H](CO)[C@@H](O)[C@H]1O [GS-441524]	–	510
